Non-standard residues stand in square brackets, D forms with d. Residues, ends and D or L forms follow the SMILES beside them. Nva = CCC[C@H](N)C(=O)O; βAla = NCCC(=O)O
How the values were obtained:
[1] = system: MDA-MB-231 breast cancer cells; experiment: Cell growth experiments, cell counting; type: cell-based; settings: MDA-MB-231 cells
Experimental: (§1) Biological activity of the peptides was first assessed using MCF-7 breast cancer cells that express AdipoR1. Arditi J D, Venihaki M, Karalis K P, Chrousos G P Horm Metab Res 2007, 39(1):9-13. The MCF-7 breast cancer cell line was obtained from ATCC (Manassas, Va.) and routinely grown in DMEM:F12 plus 5% calf serum (Cellgro Mediatech, Manassas, Va.) at 37° C., 5% CO2. For screening experiments, MCF-7 cells were plated in 24-well plates at the concentration of 30,000 cells/well. After 12 h of culture in the growth medium, the cells were synchronized in serum-free medium (SFM) (DMEM:F12 supplemented with […] bovine serum albumin, 1 mM FeSO4 and 2 mM L-glutamine) for 24 h and then shifted back to the full growth medium containing either gAd (Phoenix Secretomics, Burlingame, Calif.) at 50 ng/mL, individual peptides, or no test compounds for 24 h. At conclusion of proliferation assays, the cells were counted under the microscope with trypan-blue exclusion. Each experiment was performed in triplicate and repeated at least three times. ADP 25-β-AlaNH2, ADP 91-β-AlaNH2, ADP 157-β-AlaNH2, ADP 223-β-AlaNH2, ADP 289-β-AlaNH2 and ADP 355-β-AlaNH2 were solubilized at 65° C. for 30 min and were further purified by RP-HPLC and screened together with the individually synthesized adiponectin peptides at the exact concentration of 50 ng/mL.
(§2) The effects of the selected peptide ADP 355-NH2 on cell proliferation were tested in breast cancer cell lines (MCF-7, MDA-MB-231) and in glioblastoma cells (LN18), all obtained from ATCC and routinely cultured as described previously. Otvos L, Jr., et al. European J Cancer 2011, 47(10):1578-1584. Riolfi M, et al. Brain Pathol 2010, 20(2):481-489. Bartucci M, et al. Cancer Res 2001, 61(18):6747-6754. The peptide was tested at 10 pM-100 μM concentrations under conditions described above under peptide screening.

[2] = system: LN18 glioblastoma cells; experiment: Cell growth experiments, cell counting; type: cell-based
Experimental: as §1, §2

[3] = Peptide stability in mouse serum; type: in vitro ADME; settings: 25% aqueous mouse serum, calculated from degradation rate in 25% aqueous serum, 37° C., data not shown
Experimental: (§3) Sixty μg of ADP 355-NH2 were dissolved in 100 μL water, and 10 μL aliquots were mixed with 100 μL of freshly drawn mouse blood. After 30 min of incubation at 37° C. the cells were centrifuged at 10,000×g. Fifty μL serum was mixed with 50 μL phosphate buffered saline pH 6.8 (PBS), and the serum proteins were precipitated by addition of 45 μL aqueous 15% trichloroacetic acid (TCA) for 10 min at 4° C. After centrifugation at 12,000×g the supernatant was neutralized with 0.1 M aqueous sodium hydroxide and 0.5 μL of this solution was mixed with 0.5 μL α-cyano-4-hydroxycinnamic acid (4 mg/mL in 60% aqueous acetonitrile containing 0.1% TFA) as matrix on a sample plate. Analysis was performed on a MALDI time-of-flight tandem mass spectrometer (MALDITOF/TOF-MS, 4700 proteomic analyzer, Applied Biosystems, Weiterstadt, Germany). Additionally, the neutralized supernatant was loaded on a Jupiter C18 RP-HPLC column (4.6 mm internal diameter, 150 mm length, 5 μm particle size, 30 nm pore size; Phenomenex) that had previously been calibrated with known amounts of peptide ADP 355-NH2 dissolved in PBS. Absorbance was measured at 214 nm. Peptide ADP 355-NH2 was incubated at 37° C. with 25% aqueous mouse serum at a final concentration of 150 μg/mL. After 0, 15, 30, 60, 120, and 240 min 95 μL aliquots were mixed with 25 μL 15% aqueous TCA and were incubated for 10 min at 4° C. […]

[4] = system: MCF-7 breast cancer cells
Experimental: The MCF-7 breast cancer cell line was obtained from ATCC (Manassas, Va.) and routinely grown in DMEM:F12 plus 5% calf serum (Cellgro Mediatech, Manassas, Va.) at 37° C., 5% CO2. For screening experiments, MCF-7 cells were plated in 24-well plates at the concentration of 30,000 cells/well. After 12 h of culture in the growth medium, the cells were synchronized in serum-free medium (SFM) (DMEM:F12 supplemented with 0.42 g/mL bovine serum albumin, 1 mM FeSO4 and 2 mM L-glutamine) for 24 h and then shifted back to the full growth medium containing either gAd (Phoenix Secretomics, Burlingame, Calif.) at 50 ng/mL, individual peptides, or no test compounds for 24 h. At conclusion of proliferation assays, the cells were counted under the microscope with trypan-blue exclusion. Each experiment was performed in triplicate and repeated at least three times.

[5] = system: Akt; experiment: Signaling analysis by Western blot: Akt; type: cell-based
Experimental: (§4) The analysis was done using MCF-7 and MDA-MB-231 breast cancer cells and in LN18 glioblastoma cells. The cells at 70-80% confluence were shifted to SFM for 24 h, then SFM was removed, the cultures were washed 2× with PBS, placed in normal growth medium for 1 h, and then treated with ADP 355-NH2 at 100 nM (MCF-7 cells) or 10 μM (MDA-MB-231 and LN 18 cells) concentration for 0-60 min, while gAd at 50 ng/mL was applied for 60 min only. Untreated cells were used as negative control. After the treatment, cells were lysed as previously described and 100 μg of proteins were analyzed by Western blot for the expression of phosphorylated (p) and total forms of several signaling molecules. Bartella V, et al. Cancer Res 2008, 68(12):4919-4927. Garofalo C, et al. Clin Cancer Res 2004, 10(10):6466-6475. The following primary antibodies (Abs) from Cell Signaling (Danvers, Mass.) were used: 1) pAMPK alpha (T172) D79.5E rabbit mAb 1: 750; 2) total AMPK alpha antibody rabbit mAb 1:1000 in; 3) p44/42 MAPK (T202/Y204) rabbit mAb 1:1000; 4) total 44/42 MAP kinase antibody rabbit mAb 1:1000; 5) pStat3 (Y705) D3A7 rabbit mAb 1: 500; 6) total Stat3 79D7 rabbit mAb 1:2000; 7) pAkt (Ser 473) rabbit mAb 1:1000; 8) total Akt rabbit mAb 1:1000; 9) AdipoR1 rabbit purified anti-serum 1:500 (Phoenix Secretomics). Protein loading was verified by evaluating the expression of either a constitutive enzyme glyceraldehyde-3-phosphate dehydrogenase (GAPDH) using 6C51 mAbs 1:1000 (Santa Cruz Biotechnology, CA, USA) or alpha-actin using the actin I-19 goat polyclonal Ab (Santa Cruz) 1: 200. The following secondary Abs (Santa Cruz) were used 1) donkey anti-goat IgG-HRP; 2) goat anti-mouse IgG-HRP; 3) goat anti-rabbit IgG-HRP, all applied at 1:1000 dilution.

[6] = system: STAT3; experiment: Signaling analysis by Western blot: STAT3 phosphorylation; type: cell-based; settings: for STAT3 phosphorylation: 10 μM
Experimental: as §4

[7] = Peptide stability in whole mouse blood; type: in vitro ADME; settings: after 30 min at 37° C., mass spectroscopy
Experimental: as §3

[8] = system: female CBA/J mice; experiment: In vivo toxicity, bolus ip; settings: for Kidney weight / Kidney weight relative to total weight (%) / Liver weight / Liver weight relative to total weight (%) / Spleen weight: day 5
Description: On day 5 the mice were killed by CO2 inhalation and the potential peptide elimination organs, the livers, spleens and kidneys were removed and weighed.

[9] = system: AMPK; experiment: Signaling analysis by Western blot: AMPK phosphorylation; type: cell-based
Experimental: as §4

[10] = system: ERK1/2; experiment: Signaling analysis by Western blot: ERK1/2 phosphorylation; type: cell-based
Experimental: as §4, with “Protein loading was verified by evaluating the expression of either a constitutive enzyme glyceraldehyde-3-phosphate dehydrogenase (GAPDH) using 6C51 mAbs 1:1000 (Santa Cruz Biotechnology, CA, USA) or alpha-actin using the actin I-19 goat polyclonal Ab (Santa Cruz) 1: 200. The following secondary Abs (Santa Cruz) were used 1) donkey anti-goat IgG-HRP; 2) goat anti-mouse IgG-HRP; 3) goat anti-rabbit IgG-HRP, all applied at 1:1000 dilution.” left out

[11] = LN 18 cells, compared with 1 μM
[12] = MDA-MB-231 cells, 10 μM, 0-60 min
[13] = four days after ip administration, vs untreated

## CCC[C@H](NC(=O)[C@@H]1CCCN1C(=O)[C@@H](NC(=O)[C@H](N)CC(N)=O)[C@@H](C)CC)C(=O)N[C@@H](CC(C)C)C(=O)N[C@@H](Cc1ccc(O)cc1)C(=O)N[C@H](CO)C(=O)N[C@@H](Cc1ccccc1)C(=O)N[C@@H](C)C(=O)N[C@H](CO)C(N)=O [ADP 355-NH2, D-Asn-Ile-Pro-Nva-Leu-Tyr-D-Ser-Phe-Ala-D-Ser-NH2] (H-[dN]IP[Nva]LY[dS]FA[dS]-NH2)
[1]
  cytostatic effect at maximal effective doses compared with gAd at 50 ng/mL: greater cytostatic effects
[1]; 10 pM-100 μM
  effect on normal cell growth: restricted normal cell growth in a dose-dependent manner
[1]; compared with 1 μM
  growth inhibition at 10 μM: further activity increase
  growth inhibition at 100 μM: less inhibitory
[2]; LN18 cells
  cytostatic effect at maximal effective doses compared with gAd at 50 ng/mL: greater cytostatic effects
[2]; LN18 cells, 10 pM-100 μM
  effect on normal cell growth: restricted normal cell growth in a dose-dependent manner
[2]; [11]
  growth inhibition at 10 μM: further activity increase
  growth inhibition at 100 μM: less inhibitory
[3]
  half-life at 150 μg/mL: 75 min
[4]; MCF-7 cells
  concentration up to which the growth inhibitory activity was maintained: up to 10 μM
  cytostatic effect at maximal effective doses compared with gAd at 50 ng/mL: greater cytostatic effects
  peptide concentration at which the best growth inhibition was achieved: 100 nM
[4]; MCF-7 cells, 10 pM-100 μM
  effect on normal cell growth: restricted normal cell growth in a dose-dependent manner
[4]; MCF-7 cells, compared with 100 nM
  growth inhibition at 10 pM-10 nM: less effective
[5]; LN18 cells, 10 μM, at 15-60 min
  total and phosphorylated levels of Akt: down-regulated
[5]; MCF-7 cells, 100 nM, 0-60 min
  activation of Akt: did not affect
[5]; [12]
  Akt activation: did not affect
[6]; LN18 cells, at 15-60 min
  STAT3 phosphorylation: decreased
[6]; MCF-7 cells, 100 nM, at 15-60 min
  phosphorylation of STAT3: increased
[6]; MDA-MB-231 cells, at 15 and 30 min
  STAT3 phosphorylation: transiently increased
[7]
  stability in whole mouse blood: without noticeable degradation
[8]; 5 mg/kg bolus ip
  Kidney weight: 0.30 g
  Kidney weight relative to total weight (%): 1.6%
  Liver weight: 1.02 g
  Liver weight relative to total weight (%): 5.4%
  Spleen weight: 0.07 g
[8]; 10 mg/kg bolus ip
  Kidney weight: 0.29 g
  Kidney weight relative to total weight (%): 1.6%
  Liver weight: 1.09 g
  Liver weight relative to total weight (%): 5.9%
  Spleen weight: 0.06 g
[8]; 25 mg/kg bolus ip
  Kidney weight: 0.35 g
  Kidney weight relative to total weight (%): 1.7%
  Liver weight: 1.24 g
  Liver weight relative to total weight (%): 5.9%
  Spleen weight: 0.07 g
[8]; 50 mg/kg bolus ip
  Kidney weight: 0.31 g
  Kidney weight relative to total weight (%): 1.7%
  Liver weight: 1.07 g
  Liver weight relative to total weight (%): 6.2%
  Spleen weight: 0.07 g
[8]; four days after ip administration
  spleen size compared with untreated control mice: identical in size
[8]; [13]
  increase of kidney size relative to total body weight: 2%
  increase of liver size relative to total body weight: 8%
[8]; up to 50 mg/kg ip bolus, observed for 4 days
  signs of systemic toxicity (tremor, head tilt, reduced activity, squinting): no signs of systemic toxicity
[9]; LN18 cells, 10 μM, 0-60 min
  AMPK modulation: did not modulate
[9]; MCF-7 cells, 100 nM, at 15 and 30 min
  phosphorylation of AMPK: increased
[9]; [12]
  AMPK activation: did not affect
[10]; MCF-7 cells, 100 nM, at 60 min
  ERK1/2 phosphorylation: decreased
[10]; MDA-MB-231 cells, 10 μM, at 30 and 60 min
  ERK1/2 pathway: significantly inhibited

## CC[C@H](C)[C@H](NC(=O)[C@@H](N)CC(N)=O)C(=O)N1CCC[C@H]1C(=O)NCC(=O)N[C@@H](CC(C)C)C(=O)N[C@@H](Cc1ccc(O)cc1)C(=O)N[C@@H](Cc1ccc(O)cc1)C(=O)N[C@@H](Cc1ccccc1)C(=O)N[C@@H](C)C(=O)N[C@@H](Cc1ccc(O)cc1)C(=O)NCCC(N)=O [ADP 25-β-AlaNH2, Asn-Ile-Pro-Gly-Leu-Tyr-Tyr-Phe-Ala-Tyr-β-AlaNH2] (H-NIPGLYYFAY[βAla]-NH2; N-terminus assumed)
[4]; 50 ng/mL
  biological activity in cancer cell growth inhibition assays: fully active
[4]; MCF-7 cells, 50 ng/mL, relative to 50 ng/mL gAd (baseline)
  Cytostatic Activity of Original Peptide vs. gAd (% Increase): 11%

— patent US9073965B2, “Adiponectin receptor agonists and methods of use” (TEMPLE UNIVERSITY—OF THE COMMONWEALTH SYSTEM OF HIGHER …, priority 2011, dated 2015)
